Km data for one compound are collected here from article PMC5733030, “Characterizing Isozymes of Chlorite Dismutase for Water Treatment” (Frontiers in Microbiology, 2017).

The assay relates to T1, MbCld.
T1 construct: gene cld; native, soluble protein fraction of chlorate-grown cells; not purified
As to the kind of experiment: chloride ion selective electrode, initial rates, Michaelis-Menten fit. As to conditions: 10 mM phosphate buffer pH 7.0, 21–23°C; soluble protein fraction. The assay is classed as biochemical, Magnetospirillum bellicus. The source says: chloride ion selective electrode, initial rates, Michaelis-Menten fit on MbCld

For orientation: Km means the concentration of substrate that gives half-maximal velocity. `[O-][Cl+]O` [chlorite]: the Km was 360 ± 210 µM.
